The source of these data is paper PMC8587849, “Antimicrobial and Anticancer Application of Silver(I) Dipeptide Complexes” (Molecules, 2021).

Series [1] has as its system MCF-7. The arrangement: method as in PMID 33461021. The settings on record: cited from earlier work.
The subject of series [2] is MDA-MB-231. The arrangement: method as in PMID 33461021. Conditions: cited from earlier work.
The next series deals with MCF-7 cells. Conditions: cited from earlier work.
A further series relates to S. thypimurium TA100. The experiment in a line: Ames test, plate incorporation method. The settings on record: positive control, 100µg. The series is classed as cell-based, Salmonella Typhimurium.
In the next series the test system is S. thypimurium TA98. As to the kind of experiment: Ames test, plate incorporation method. Format: cell-based, Salmonella Typhimurium. The settings on record: positive control, 100µg.
Series [3] concerns Escherichia coli (E. coli) CCM 3988. As to the kind of experiment: Antibacterial activity, macrodilution method. The series is classed as cell-based.
Experimental: (§4) Cultures of bacteria (in Mueller-Hinton broth, MHB) and yeasts (in Sabouraud’s growth medium, SB) were incubated under shaking (250 rpm) at 37 °C. The growth of bacteria and yeasts was evaluated by measuring the absorbance of the growing cultures (A550) until the cultures reached the stationary growth phase. […] The final concentration of DMSO never exceeded 1.0 vol. % in the control or treated samples. […] The IC50 and MIC90 with respect to MIC80 values were evaluated from toxicity curves.
The subject of series [4] is Staphylococcus aureus CCM 3953. As to the kind of experiment: Antibacterial activity, macrodilution method. Format: cell-based. Conditions: S. aureus.
Experimental: as §4
Series [5] relates to methicillin-resistant Staphylococcus aureus L12. As to the kind of experiment: Antibacterial activity, macrodilution method. Format: cell-based. The settings on record: S. aureus L12 (MRSA).
Experimental: as §4
In series [6] the test system is Staphylococcus epidermidis CCM 7221. The experiment in a line: Antibacterial activity, macrodilution method. The series is classed as cell-based. Conditions: S.epidermidis.
Experimental: as §4
Series [7] deals with Candida parapsilosis ATCC 22019. As to the kind of experiment: Antifungal activity (yeast), macrodilution method. The series is classed as cell-based. The settings on record: C. parapsilosis.
Experimental: as §4
The next series relates to Candida albicans SC 5314. The experiment in a line: Antifungal activity (yeast), macrodilution method. The series is classed as cell-based. Conditions: C. albicans.
Series [8] has as its system Rhizopus oryzae CCM F-8284. The experiment in a line: Antifungal activity (filamentous fungi), macrodilution on solidified PDA. Format: cell-based.
Experimental: (§5) Cultures of bacteria (in Mueller-Hinton broth, MHB) and yeasts (in Sabouraud’s growth medium, SB) were incubated under shaking (250 rpm) at 37 °C. The growth of bacteria and yeasts was evaluated by measuring the absorbance of the growing cultures (A550) until the cultures reached the stationary growth phase. […] During culturing, the diameters of growing fungal colonies were measured at regular intervals [71, 72]. […] The final concentration of DMSO never exceeded 1.0 vol. % in the control or treated samples. […] The IC50 and MIC90 with respect to MIC80 values were evaluated from toxicity curves.
Series [9] deals with Alternaria alternata CCM F-128. Described as above. The series is classed as cell-based. The settings on record: A. alternata.
Experimental: as §5
A further series concerns A.flavus. As to the kind of experiment: Antifungal activity (filamentous fungi). The series is classed as cell-based. The settings on record: read-out: IC50 and MIC100 (class symbol).
Series [10] concerns Microsporum gypseum CCM F-8342. As to the kind of experiment: Antifungal activity (filamentous fungi), macrodilution on solidified PDA. Format: cell-based. The settings on record: M.gypseum; read-out: IC50 and MIC100 (class symbol).
Experimental: as §5
The next series concerns S. aureus biofilm. As to the kind of experiment: Influence on S. aureus biofilm formation, crystal violet staining. Conditions: for A570 (biofilm, crystal violet): control A570 = 0.47; for I: biofilm intensity: control strong. Format: cell-based.
A further series has as its system HeLa. The experiment in a line: MTS antiproliferative assay. The settings on record: 72 h. The series is classed as cell-based, human. On the procedure: (§1) After 72 h of incubation, 10 µL of MTS was added to each well. […] IC50 values were calculated from MTS analyses.
The subject of series [11] is MCF-7. The experiment in a line: MTS antiproliferative assay. The series is classed as cell-based, human. Conditions: 72 h. On the procedure:
as §1

For the next series, the system named is BLM. As to the kind of experiment: MTS antiproliferative assay. Conditions: BLM; MTS, 72 h. Format: cell-based, human. As to the method: (§2) Cells were maintained in standard conditions with an atmosphere containing 5% CO2 at 37 °C.
as §1

The subject of the next series is HCT116. As to the kind of experiment: MTS antiproliferative assay. The series is classed as cell-based, human. Conditions: 72 h. As to the method:
as §2, §1

A further series has as its system Jurkat. The experiment in a line: MTS antiproliferative assay. The series is classed as cell-based, human. The settings on record: 72 h. As to the method: as §2, §1
In series [12] the test system is MDA-MB-231. The experiment in a line: MTS antiproliferative assay. The series is classed as cell-based, human. Conditions: 72 h. As to the method: as §2, §1
For a further series, the system named is BJ-5ta. The experiment in a line: MTS assay on fibroblasts. The series is classed as cell-based. Conditions: BJ-5ta human skin fibroblasts, 72 h. On the procedure:
as §1

In another series the test system is CT DNA. As to the kind of experiment: UV-Vis absorption titration with CT DNA. The series is classed as binding, calf. Conditions: 0.01 M Tris-HCl pH 7.4; complex 7.85 × 10^−5 M. As to the method: UV–vis spectra were measured in 0.01 M Tris-HCl buffer (pH 7.4) using a Varian Cary 100 Bio spectrophotometer in the range of 230–320 nm and recorded at room temperature (24 °C) using a quartz cuvette of 1 cm path length. The concentration of investigated Ag(I) complexes was 7.85 × 10^−5 M. During the titration, an aliquot of buffered CT DNA solution was added to each cuvette (sample and reference) to eliminate the absorbance of DNA itself. The DNA concentration per nucleotide was determined by absorption spectroscopy using the molar absorption coefficient (6600 M^−1cm^−1) at 260 nm.

Another series has as its system CT DNA–HO system. As to the kind of experiment: Fluorescence competitive binding with Hoechst 33258. The arrangement: species or system calf. The settings on record: displacement of Hoechst 33258 from CT DNA; 462 nm; 10 mM Tris-HCl pH 7.4. As to the method:
The fluorescence competitive binding studies of silver(I) complexes with Hoechst 33 258 (HO) were performed on a Varian Cary Eclipse spectrophotometer. The emission spectra of DNA–HO were measured in the range of 400–550 nm using an excitation wavelength of 343 nm with a slit width of 5 nm for the excitation and 5 nm for the emission beam. […] Ksv quenching constant was determined according to the classical Stern-Volmer Equation (1) in [63, 75]:F0/F = 1 + KSV [Q](1) where F0 and F are the fluorescence intensities in the absence and the presence of the quencher at 462 nm, KSV is the Stern-Volmer quenching constant and [Q] is the concentration of the quencher.

The test system of a further series is BLM cells. As to the kind of experiment: Cell cycle analysis by flow cytometry. Format: cell-based, human. The settings on record: 48 h, treated with IC50. As to the method: (§3) Prior to each analysis, cells were washed in PBS, followed by resuspending in staining solution (0.5 mg/mL ribonuclease A, 0.2% final concentration Triton X-100, propidium iodide 0.025 mg/mL in 500 µL PBS) (all Sigma Aldrich), and incubated for 30 min at room temperature in the dark. For analysis of stained cells, a BD FACSCalibur flow cytometer (BD Bio-sciences) was used. A minimum of 1 × 10^4 events were analysed per analysis.

The next series deals with HCT116 cells. The experiment in a line: Cell cycle analysis by flow cytometry. The series is classed as cell-based, human. Conditions: 72 h, treated with IC50. As to the method: as §3
In another series the test system is Jurkat cells. The experiment in a line: Cell cycle analysis by flow cytometry. The series is classed as cell-based, human. Conditions: 72 h, treated with IC50. On the procedure: as §3
Another series concerns MDA-MB-231 cells. As to the kind of experiment: Cell cycle analysis by flow cytometry. The series is classed as cell-based, human. The settings on record: 72 h, treated with IC50. On the procedure: as §3

Read-outs that look alike come from different tables or passages of the source.

Experimental for A.flavus: as §5
Experimental for Candida albicans SC 5314: as §5
Experimental for S. aureus biofilm: The biofilm was qualified by the crystal violet staining method. Briefly, overnight cultures of bacteria S.aureus (in MHB) and yeasts C.parapsislosis (in SB) were prepared. The fresh prepared growth media MHB and SB were inoculated with the overnight culture for a final concentration of 5 × 10^6 cells mL^−1. The microbial biofilm was formed in 96-well microplates for adherent cells. […] Prepared cultures were incubated for 2 h at 37 °C. […] The treatment with DMSO (solvent) alone served as a control. The inoculated microplates were incubated at 37 °C for the next 46 h. […] Microplates with mature biofilm were decanted and washed using 200 μL of saline solution. The plate was left for 15 min to dry completely at laboratory temperature. Then, 110 μL of 0.4% crystal violet dye was added to each well, and the plate was incubated for 15 min at laboratory temperature. After the decantation, the plate was washed 3 times with 200 μL of saline solution. Then, 200 μL of 96% ethanol was added. The microplate was left to incubate for 15 min at laboratory temperature. After the transfer of the well content to a clean microplate, the absorbance (570 nm) of released crystal violet (proportionate to biofilm cell density) was measured,, and the values were evaluated as weak biofilm formation A570 <0.1; 0.199>, medium biofilm formation A570 <0.2; 0.3>, strong biofilm formation A570 <0.301; 0.999>, or very strong biofilm formation A570 ≥ 1.00.
Text for S. thypimurium TA100: (§6) Salmonella Typhimurium TA 98 and TA 100 were obtained from the Czech Collection of Microorganisms. As a positive mutagen, 3-(5-nitro-2-furyl) acrylic acid (NFAA) was used.
Text for S. thypimurium TA98: as §6

As for [Ag3(Gly)2NO3]n, the IC50 is 2.6 ± 0.1 µM with MCF-7 [1] and 2.7 ± 0.2 µM with MDA-MB-231 [2]. For the same compound, in the series on MCF-7 cells (MFC-7 cancer cells, Control 9.8%, ref Banti et al.), the “cells in sub-G0 population” value is 42.7%. The “cells in S phase” value with MCF-7 cells is 24.1%.
Take `O=C(O)C=Cc1ccc([N+](=O)[O-])o1` [NFAA, 3-(5-nitro-2-furyl) acrylic acid]: the “Revertants CFU No. ± SD” value was 1352± 124 CFU in the series with S. thypimurium TA100 and 28 ± 2 CFU with S. thypimurium TA98.
For [Ag(GlyGly)]n(NO3)n [AgGlyGly], the IC50 in series [3] amounted to 6 µM; in [4], 12 µM; in [5] it was 15 µM; in series [6], 10 µM; in series [7] it was 30 µM; in the series with Candida albicans SC 5314, 70 µM. The IC50 is 30 µM in series [8] (read-out: IC50); 71 µM in series [9] (read-out: IC50); greater than 100 µM with A.flavus; greater than 100 µM in series [10]; 38.3 µM in the series with HeLa; 9 µM with MCF-7 [11]. Besides, the IC50 in the series on BLM was 21.2 µM; in the series with HCT116, 34.5 µM; with Jurkat, 14.8 µM; in the series with MDA-MB-231 [12] it was 13 µM; in the series with BJ-5ta, 47.1 µM. Also, the MIC90 worked out at 10 µM in [3], 22 µM in series [4], 38 µM in series [5] and 20 µM in [6]. Also, the MIC80 in series [7] came to 70 µM; against Candida albicans SC 5314, 100 µM. Also, the MIC100 in series [8] (suffix s = fungistatic) is 50 µM; in [9] (suffix s = fungistatic), greater than 100 µM. Moreover, the “A570 (biofilm, crystal violet)” value was 0.72 with S. aureus biofilm (complex concentration 5 µM); 0.39 in the series on S. aureus biofilm (complex concentration 10 µM); 0.26 in the series with S. aureus biofilm (complex concentration 25 µM); 0.22 with S. aureus biofilm (complex concentration 50 µM); 0.28 in the series with S. aureus biofilm (complex concentration 100 µM). Moreover, the “I: biofilm intensity” value is recorded as “strong (strong biofilm formation A570 <0.301; 0.999>)” in the series with S. aureus biofilm (complex concentration 5 µM), “strong (strong biofilm formation A570 <0.301; 0.999>)” with S. aureus biofilm (complex concentration 10 µM) and “medium (medium biofilm formation A570 <0.2; 0.3>)” with S. aureus biofilm (complex concentration 100 µM). In the series on CT DNA, the Hypochromism amounted to 20.1%. The “Δλmax (red shift on addition of CT DNA)” value with CT DNA is 22 nm. For the same compound, the “KSV (Stern-Volmer quenching constant)” value in the series with CT DNA–HO system is recorded as 4.51 ± 0.05 × 10^4 M^−1. The “cells in G2/M” value with BLM cells is reported as 32.7 ± 2.4%; with HCT116 cells, 7.1 ± 2.3%; in the series with Jurkat cells it was 8.9 ± 0.1%; in the series on MDA-MB-231 cells, 14.9 ± 0.1%. In addition, the “cells in S” value in the series with BLM cells is reported as 15.3 ± 1.5%; with HCT116 cells, 9.8 ± 0.1%; in the series on Jurkat cells, 11.1 ± 0.8%; in the series on MDA-MB-231 cells it was 14.4 ± 0.1%.
